# Patent US7071231B2, “Naphthalene ureas as glucose uptake enhancers” (Telik, Inc., priority 1999, dated 2006)
# Tests used:
# [1] = test system: STZ/HFD rats; test: Multi-dosing in STZ/HFD rats; type: in vivo, rat; conditions: 30 mg/kg oral daily, 3 days (FIG. 14)
# Description: Multi-Dosing in STZ/HFD Rats
# STZ/HFD rats were prepared as in example 19. Compound 15 or an equivalent amount of the vehicle (PBS) was administered daily by the oral route at a dose of 30 mg/kg. Blood samples were taken by an IACUC-approved protocol (tail cap method) immediately before each dose and 4 and 6 (day one only) hours later. Blood glucose levels were measured using a Glucometer Elite (Bayer, Elkhart, Ind.). The blood glucose levels of the vehicle-treated group fell over the course of the experiment as the animals recovered from the low dose of STZ (FIG. 14).
# [2] = test system: ob/ob mouse; test: Blood glucose, insulin and triglycerides in the ob/ob mouse model of Type 2 diabetes; type: in vivo; conditions: ob/ob mice, single dose 30 mg/kg, p.o.
# Description: Lowering of Blood Glucose, Insulin and Triglycerides in the ob/ob Mouse Model of Type 2 Diabetes Another standard model of Type 2 diabetes is the ob/ob mouse. Male ob/ob mice (C57 BL/6J-ob) were housed 3–5 to a cage with free access to standard rodent chow pellets. After one week, they were given a single dose of Compound 15 (30 mg/kg, p.o.). Compound 15 produced a 13% decrease in blood glucose levels, a 42% decrease in plasma insulin levels, and a 15% decrease in plasma triglyceride levels. The concomitant reduction of plasma glucose and insulin levels are consistent with a reduction in insulin resistance.
# [3] = biological target: T1, β-kinase domain of the human insulin receptor (CKD) (Homo sapiens, UniProt P06213); test: 32P-cytoplasmic kinase domain (CKD) autophosphorylation assay; type: biochemical; conditions: phosphorylation of CKD expressed as % of the vehicle level; 10 minutes at room temperature; compound concentration not given
# T1 construct: The complete β-kinase domain of the human insulin receptor (CKD) was expressed in, and purified from, baculovirus; made in house
# T1 sequence (P06213 980-1382 limits assumed): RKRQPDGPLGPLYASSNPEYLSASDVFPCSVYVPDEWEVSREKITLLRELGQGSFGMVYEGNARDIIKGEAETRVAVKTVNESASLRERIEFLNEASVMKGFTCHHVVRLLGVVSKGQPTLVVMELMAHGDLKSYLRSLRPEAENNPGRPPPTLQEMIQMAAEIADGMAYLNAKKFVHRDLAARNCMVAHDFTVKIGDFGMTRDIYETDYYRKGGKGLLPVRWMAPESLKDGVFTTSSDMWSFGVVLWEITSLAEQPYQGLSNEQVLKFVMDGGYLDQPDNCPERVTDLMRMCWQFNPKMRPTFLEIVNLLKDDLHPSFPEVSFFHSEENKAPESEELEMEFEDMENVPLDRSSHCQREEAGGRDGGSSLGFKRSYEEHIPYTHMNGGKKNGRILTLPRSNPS
# Procedure, shortened: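 Baculovirus-expressed CKD (4.0 μg/ml) in 29 mM HEPES pH 7.6, 10 mM MgCl2, 2 mM MnCl2 with 50 μM ATP plus ^32P-ATP, 1% DMSO, 10 min at room temperature. EDTA stop, SDS-PAGE, CKD-band radioactivity by phosphorimaging or scintillation counting; activity as % of vehicle phosphorylation.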
# [4] = biological target: insulin-like growth factor type 1 (IGF-1) receptor (Homo sapiens, UniProt P08069); test: Selectivity: IGF-1 receptor phosphorylation; type: cell-based; conditions: in the absence or presence of IGF-1
# insulin-like growth factor type 1 (IGF-1) receptor, sequence (P08069 741-1367 limits assumed): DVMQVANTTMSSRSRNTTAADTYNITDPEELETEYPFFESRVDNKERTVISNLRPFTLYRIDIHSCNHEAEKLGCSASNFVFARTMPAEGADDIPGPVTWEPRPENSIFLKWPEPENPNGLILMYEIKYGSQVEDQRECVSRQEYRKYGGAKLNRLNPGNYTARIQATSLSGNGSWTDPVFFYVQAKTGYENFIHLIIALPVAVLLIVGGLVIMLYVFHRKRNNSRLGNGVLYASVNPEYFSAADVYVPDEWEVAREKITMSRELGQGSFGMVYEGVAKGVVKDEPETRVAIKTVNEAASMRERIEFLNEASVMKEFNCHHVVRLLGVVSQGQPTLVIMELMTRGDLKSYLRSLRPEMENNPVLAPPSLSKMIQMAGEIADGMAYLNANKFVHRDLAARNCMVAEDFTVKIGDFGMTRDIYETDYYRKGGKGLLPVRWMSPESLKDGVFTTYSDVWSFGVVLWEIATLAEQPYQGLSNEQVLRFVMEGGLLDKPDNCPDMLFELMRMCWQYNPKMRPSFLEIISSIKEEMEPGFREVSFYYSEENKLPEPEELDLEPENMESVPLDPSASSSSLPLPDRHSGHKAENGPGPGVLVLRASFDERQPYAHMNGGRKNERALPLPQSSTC
# insulin-like growth factor type 1 (IGF-1) receptor, sequence (P08069 31-736 partner limits assumed): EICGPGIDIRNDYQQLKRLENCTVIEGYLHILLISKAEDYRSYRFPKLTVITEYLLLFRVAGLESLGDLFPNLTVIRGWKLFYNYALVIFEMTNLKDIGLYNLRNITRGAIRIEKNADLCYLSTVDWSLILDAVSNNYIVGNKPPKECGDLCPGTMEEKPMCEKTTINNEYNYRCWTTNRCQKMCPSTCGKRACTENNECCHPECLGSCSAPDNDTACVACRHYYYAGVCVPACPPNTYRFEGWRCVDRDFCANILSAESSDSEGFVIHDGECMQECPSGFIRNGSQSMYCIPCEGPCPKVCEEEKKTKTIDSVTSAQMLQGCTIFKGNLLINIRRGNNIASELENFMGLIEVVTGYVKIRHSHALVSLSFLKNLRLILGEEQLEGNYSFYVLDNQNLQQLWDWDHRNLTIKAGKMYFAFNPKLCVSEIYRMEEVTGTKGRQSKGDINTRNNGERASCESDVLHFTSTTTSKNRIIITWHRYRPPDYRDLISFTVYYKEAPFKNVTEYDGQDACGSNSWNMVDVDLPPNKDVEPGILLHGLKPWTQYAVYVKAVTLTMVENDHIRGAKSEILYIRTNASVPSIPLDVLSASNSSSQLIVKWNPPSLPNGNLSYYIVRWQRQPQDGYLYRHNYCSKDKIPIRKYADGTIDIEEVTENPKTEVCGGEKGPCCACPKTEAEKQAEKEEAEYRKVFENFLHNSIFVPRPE
# [5] = test system: GLUT4 in 3T3 L1 adipocytes; test: Immunofluorescence analysis of GLUT4 mobilization; type: cell-based; conditions: 56 μM Compound 15 alone, 1 hr at 37° C. (FIG. 6C)
# Description: Immunofluorescence Analysis of GLUT4 Mobilization in 3T3 L1 Adipocytes Insulin-dependent transport of glucose into cells utilizes glucose transporter proteins, such as GLUT4. Stimulation with insulin causes these transporters to translocate from storage sites within the cell to the cell membrane, where they facilitate glucose entry. 3T3 L1 adipocytes were grown and differentiated as in Example 11, except that they were grown on a microscope chamber slide. The cells were serum-starved with 0.1% BSA in DMEM for 16 hrs and stimulated with 56 μM Compound 15 alone, 100 nM Insulin for 1 hr at 37° C. The cells were fixed with 3.5% paraformaldehyde for 5 min and permeabilized with 0.2% saponin in 1% BSA, TBS for 5 min followed by incubation with anti-GLUT4 antibody for 30 min at room temperature. The cells were extensively washed and incubated with FITC-conjugated secondary antibody for 30 min at room temperature.
# [6] = test system: 3T3 L1 fibroblasts; test: Glucose transport activity assay (14C-2-deoxy-D-glucose uptake); type: cell-based
# Procedure, shortened: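 Differentiated 3T3 L1 adipocytes (IBMX/dexamethasone/insulin induction), serum-starved overnight, preincubated 30 min at 37 °C with compound ± insulin in pH 7.4 salt buffer, then 30 min with 5 μCi/ml 14C-2-deoxy-D-glucose. Lysate radioactivity counted; EC = concentration raising uptake above 150% of vehicle control.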
# [7] = biological target: CYP2D6 (Homo sapiens, UniProt P10635); test: P450 interactions: CYP2D6 inhibition; type: in vitro ADME; conditions: human cytochromes P450
# CYP2D6, sequence (P10635 whole entry): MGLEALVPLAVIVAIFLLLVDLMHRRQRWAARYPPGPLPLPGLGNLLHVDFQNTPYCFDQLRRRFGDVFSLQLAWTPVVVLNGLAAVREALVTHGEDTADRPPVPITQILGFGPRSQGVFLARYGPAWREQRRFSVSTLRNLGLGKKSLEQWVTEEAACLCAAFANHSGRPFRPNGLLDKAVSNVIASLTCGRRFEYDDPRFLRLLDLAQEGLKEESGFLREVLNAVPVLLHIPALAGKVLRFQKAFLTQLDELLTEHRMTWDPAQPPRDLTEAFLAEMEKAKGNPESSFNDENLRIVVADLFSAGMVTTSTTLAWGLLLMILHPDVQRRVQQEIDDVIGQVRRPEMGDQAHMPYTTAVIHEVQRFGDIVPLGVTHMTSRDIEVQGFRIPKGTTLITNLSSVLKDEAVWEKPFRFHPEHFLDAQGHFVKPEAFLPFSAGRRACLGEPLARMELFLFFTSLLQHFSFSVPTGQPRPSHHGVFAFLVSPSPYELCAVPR
# Excerpt: A major pathway for elimination of drugs from the body, which may limit their effectiveness, is the cytochrome P450 system of the liver.
smiles,measurement,setting,value
"O=C(Nc1ccc2c(O)cc(S(=O)(=O)Nc3cccc(S(=O)(=O)O)c3)cc2c1)Nc1ccc2c(O)cc(S(=O)(=O)Nc3cccc(S(=O)(=O)O)c3)cc2c1 [Compound 15, 3-{[(4-hydroxy-7-{[N-(5-hydroxy-7-{[(3-sulfophenyl)amino]sulfonyl}(2-naphthyl))carbamoyl]amino}-2-naphthyl)sulfonyl]amino}benzenesulfonic acid]",blood glucose levels versus vehicle-treated group,[1],lowered blood glucose levels below those of the vehicle-treated group by 6 hours after administration
same,decrease in blood glucose levels,[2],13%
same,decrease in plasma insulin levels,[2],42%
same,decrease in plasma triglyceride levels,[2],15%
same,% Activity vs. Control,[3],125%
same,phosphorylation of the IGF-1 receptor,[4],not to increase the phosphorylation
same,GLUT4 translocation (immunofluorescence),[5],produced apparent translocation of GLUT4 to the cell surface
same,EC (150% of vehicle control),"[6]; Mus musculus, EC (effective concentration) for increase in glucose transport, 14C-2-deoxy-D-glucose, 3T3 L1 cells, read-out: Concentration (μM) to reach >150% activity of vehicle control",3.2 µM
same,glucose uptake of cells,[6]; in the presence or absence of insulin (FIG. 3),increase in glucose uptake of cells
same,inhibition of catalytic activity of CYP2D6,[7],did not inhibit
